Measurements taken from patent US5604236A, “Beta-carboline thromboxane synthase inhibitors” (Eli Lilly and Company, priority 1995, dated 1997).

Tests used:
[1] = target: T1, thromboxane synthase (Homo sapiens, UniProt P24557); test: Thromboxane Synthase Inhibition (TSI) Test, serum TXB2 by radioimmunoassay in human whole blood; format: cell-based; settings: fresh whole human blood, 30 min at 37° C., then CaCl2 1 hour; TXB2 RIA; read-out: IC50 (concentration of compound required to reduce thromboxane generation to 50% of that obtained with vehicle alone)
T1 construct: incubated with fresh whole human blood, that had been anticoagulated with 0.38% trisodium citrate; from tissue; host or cells: fresh whole human blood (citrated, recalcified to clot)
T1 sequence (P24557 1-533): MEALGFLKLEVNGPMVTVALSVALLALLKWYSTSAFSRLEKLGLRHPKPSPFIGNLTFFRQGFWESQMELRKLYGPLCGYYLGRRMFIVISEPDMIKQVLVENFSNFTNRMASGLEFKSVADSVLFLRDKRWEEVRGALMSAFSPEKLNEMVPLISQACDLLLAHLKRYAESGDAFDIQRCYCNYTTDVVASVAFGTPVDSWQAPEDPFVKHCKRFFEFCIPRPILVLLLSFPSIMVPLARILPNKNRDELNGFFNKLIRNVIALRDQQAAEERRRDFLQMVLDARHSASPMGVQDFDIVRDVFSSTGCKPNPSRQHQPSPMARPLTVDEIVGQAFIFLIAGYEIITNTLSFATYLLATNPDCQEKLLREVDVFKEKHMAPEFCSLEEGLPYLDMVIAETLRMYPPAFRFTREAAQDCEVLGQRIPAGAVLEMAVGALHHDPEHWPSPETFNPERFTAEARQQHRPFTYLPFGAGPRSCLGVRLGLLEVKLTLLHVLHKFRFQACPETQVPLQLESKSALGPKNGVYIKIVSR
Method: (§1) The ability of the compounds of the present invention to be an effective thromboxane synthase inhibitors were evaluated in the following Thromboxane Synthase Inhibition (TSI) Assay with the results shown in Table 2 below: The test compounds were dissolved in dimethylsulfoxide. The compound solutions were incubated with fresh whole human blood, that had been anticoagulated with 0.38% trisodium citrate, for 30 minutes at 37° C. After 30 minutes, 0.025 ml of 0.5M calcium chloride solution was added to each 1 ml of blood and further incubated for one hour at 37° C. Serum was prepared by centrifugation of the blood at 2000×g for 15 minutes in a Beckman table top centrifuge. Serum TXB2 and 6-keto-PGF1a, the stable metabolites of and markers of synthesis of TXA2 and prostacyclin respectively, were measured by radioimmunoassay by commonly used test methods (see, Refs.,1 & 2 below). Results from the radioimmunoassay of TXB2 were used to calculate the IC50 (concentration of compound required to reduce thromboxane generation to 50% of that obtained with vehicle alone).

[2] = system: 6-keto-PGF1a (prostacyclin generation); test: Serum 6-keto-PGF1a (prostacyclin generation) by radioimmunoassay in human whole blood; format: cell-based; settings: for Serum 6-keto-PGF1a: vehicle 2.43
Method: as §1, with “The” for “The ability of the compounds of the present invention to be an effective thromboxane synthase inhibitors were evaluated in the following Thromboxane Synthase Inhibition (TSI) Assay with the results shown in Table 2 below: The”
Data determined from the radioimmunoassay of 6-keto-PGF1a (reflecting prostacyclin generation) allowed a determination of the specificity of the compound of example 1 for the inhibition of thromboxane synthase as indicated by increased levels of 6-keto-PGF1a relative to the less specific inhibition of cyclooxygenase by aspirin.

[3] = system: TXB2; test: Serum TXB2 levels ex vivo after oral or i.v. administration to rats; format: in vivo; settings: rat
Method: The blood was allowed to clot in glass tubes for 1 hour at 37° C. Serum was collected after sedimentation of the clot by centrifugation at 2000×g for 15 minutes in a Beckman table top centrifuge. The levels of TXB2 were measured in the serum by radioimmunoassay.

[4] = system: 6-keto-PGF1a (prostacyclin generation); settings: stated as well known; result in words; cited from earlier work

COc1ccc2c(c1)c1ccncc1n2CCCCCC(=O)O [Example 7, 6-Methoxy-9H-pyrido(3,4-β)indole-9-hexanoic acid]
IC50 [1]: 0.049 µM

O=C(O)CCCn1c2ccccc2c2ccncc21 [Example 2, 9H-Pyrido (3,4-β)indole-9-butanoic acid]
IC50 [1]: 19 µM

O=C(O)CCCCCn1c2ccc([N+](=O)[O-])cc2c2ccncc21 [Example 8, 6-Nitro-9H-pyrido(3,4-β)indole-9-hexanoic acid]
IC50 [1]: 0.091 µM

Cc1ccc2c(c1)c1ccncc1n2CCCCCC(=O)O [Example 6, 6-Methyl-9H-pyrido(3,4-β)indole-9-hexanoic acid]
IC50 [1]: 0.031 µM

O=C(O)CCCCCn1c2ccccc2c2ccncc21 [Example 1, 9H-Pyrido(3,4-β)indole-9-hexanoic acid]
IC50 [1]: 0.053 µM
Serum 6-keto-PGF1a ([2]; 0.001 μM): 3.01 ng/mL
Serum 6-keto-PGF1a ([2]; 0.01 μM): 5.09 ng/mL
Serum 6-keto-PGF1a ([2]; 0.1 μM): 7.07 ng/mL
Serum 6-keto-PGF1a ([2]; 1 μM): 7.71 ng/mL
Serum 6-keto-PGF1a ([2]; 10 μM): 7.82 ng/mL
effect on human serum 6-keto-PGF1a levels ([2]; human serum, result in words): dose-dependent stimulatory effect
Serum TXB2 (% control) ([3]; i.v., 0.01 mg/kg, 15 minutes): 69 % control
Serum TXB2 (% control) ([3]; i.v., 0.1 mg/kg, 15 minutes): 14 % control
Serum TXB2 (% control) ([3]; i.v., 1 mg/kg, 15 minutes): 4 % control
availability by oral and i.v. routes ([3]; inferred from decreased serum TXB2, result in words): availability of the compounds by both oral and i.v. routes
Serum TXB2 (% control) ([3]; oral, 0.1 mg/kg, one hour): 54 % control
Serum TXB2 (% control) ([3]; oral, 1 mg/kg, one hour): 16 % control
Serum TXB2 (% control) ([3]; oral, 10 mg/kg, one hour): 2 % control
Serum TXB2 (% control) ([3]; oral, 100 mg/kg, one hour): 1 % control

O=C(O)CCCCn1c2ccccc2c2ccncc21 [Example 3, 9H-Pyrido (3,4-β)indole-9-pentanoic acid]
IC50 [1]: 0.1 µM

O=C(O)CCCCCn1c2ccc(Br)cc2c2ccncc21 [Example 5, 6-Bromo-9H-pyrido(3,4-β)indole-9-hexanoic acid]
IC50 [1]: 0.068 µM

CC(=O)Oc1ccccc1C(=O)O [Aspirin]
generation of 6-keto-PGF1a [4]: completely inhibit

O=C(O)CCCCCCn1c2ccccc2c2ccncc21 [Example 4]
IC50 [1]: 0.21 µM
